We go through one molecule from patent US10975064B2, “RIP1 inhibitory compounds and methods for making and using the same” (Rigel Pharmaceuticals, Inc., priority 2018, dated 2021).

This assay has as its system TNF-alpha induced hypothermia. Kind of assay: acute hypothermia mouse model. It counts as in vivo. To be noted: 15 mg/kg, oral gavage, C57BL/6 mice. On the procedure: In this example, an acute hypothermia mouse model assay was used to evaluate the ability of compounds disclosed herein to inhibit TNF-alpha induced hypothermia. Female C57BL/6 mice are randomly grouped and weighed on Day-1. On the day of the study (Day 0), mice are administered vehicle or test article by oral gavage. Fifteen minutes after oral administration of test agents, each mouse is administered an intraperitoneal (IP) injection of solution containing recombinant human tumor necrosis factor alpha (TNF-a, 25.0 μg) and zVAD-FMK (200 μg). Body temperature is measured at hour zero (before IP injections) and every hour via rectal probe temperature measuring device. Three (3) hours after IP injections of TNF-a and zVAD/FMK, mice are euthanized by CO2 asphyxiation and blood is collected via cardiac puncture. Serum and plasma are harvested for determination of cytokine and compound levels, respectively. Separate groups of mice (satellite mice) are included for the determination of compound levels in plasma at the time of administration of TNFa/zVAD-FMK. (S)-5-benzyl-N-(5-methyl-4-oxo-2,3,4,5-tetrahydrobenzo[b][1,4]oxazepin-3-yl)-4H-1,2,4-triazole-3-carboxamide (WO 2014/125444), having a structure as illustrated below, was used as a comparative compound and was examined using the same assay protocol.

With `CN1C(=O)[C@@H](NC(=O)c2n[nH]c(Cc3ccccc3)n2)COc2ccc(N3CC4(CCOCC4)C3)cc21` [Compound I-5, (S)-5-benzyl-N-(5-methyl-4-oxo-7-(7-oxa-2-azaspiro[3.5]nonan-2-yl)-2,3,4,5-tetrahydrobenzo[b][1,4]oxazepin-3-yl)-1H-1,2,4-triazole-3-carboxamide], the “inhibition of TNF-alpha induced hypothermia” value turned out to be 81%.
